Data: PubChem BioAssay (NCI)
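Abbreviation: GI50, concentration required for 50% inhibition of growth. TGI: total growth inhibition.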

What was measured:
Test in all cases: NCI-60 cell line screen, 384-well format
[1] = tested on: 786-0 renal
[2] = tested on: A498 renal
[3] = tested on: A549 NSCLC
[4] = tested on: ACHN renal
[5] = tested on: BT-549 breast
[6] = tested on: CAKI-1 renal
[7] = tested on: CCRF-CEM leukemia
[8] = tested on: COLO 205 colon
[9] = tested on: DU-145 prostate
[10] = tested on: HCC-2998 colon
[11] = tested on: HCT-116 colon
[12] = tested on: HCT-15 colon
[13] = tested on: HL-60(TB) leukemia
[14] = tested on: HOP-62 NSCLC
[15] = tested on: HOP-92 NSCLC
[16] = tested on: HT29 colon
[17] = tested on: IGROV1 ovarian
[18] = tested on: K-562 leukemia
[19] = tested on: KM12 colon
[20] = tested on: LOX IMVI melanoma
[21] = tested on: M14 melanoma
[22] = tested on: MALME-3M melanoma
[23] = tested on: MCF7 breast
[24] = tested on: MDA-MB-231 breast
[25] = tested on: MDA-MB-435 melanoma
[26] = tested on: MDA-MB-468 breast
[27] = tested on: MOLT-4 leukemia
[28] = tested on: NCI-H226 lung
[29] = tested on: NCI-H23 lung
[30] = tested on: NCI-H322M lung
[31] = tested on: NCI-H460 NSCLC
[32] = tested on: NCI-H522 lung
[33] = tested on: NCI/ADR-RES ovarian
[34] = tested on: OVCAR-3 ovarian
[35] = tested on: OVCAR-4 ovarian
[36] = tested on: OVCAR-5 ovarian
[37] = tested on: OVCAR-8 ovarian
[38] = tested on: PC-3 prostate
[39] = tested on: RPMI-8226 leukemia
[40] = tested on: RXF 393 renal
[41] = tested on: SF-268 CNS
[42] = tested on: SF-295 CNS
[43] = tested on: SF-539 CNS
[44] = tested on: SK-MEL-2 melanoma
[45] = tested on: SK-MEL-28 melanoma
[46] = tested on: SK-MEL-5 melanoma
[47] = tested on: SK-OV-3 ovarian
[48] = tested on: SN12C renal
[49] = tested on: SNB-19 CNS
[50] = tested on: SR leukemia
[51] = tested on: SW-620 colon
[52] = tested on: T-47D breast
[53] = tested on: TK-10 renal
[54] = tested on: U251 glioblastoma
[55] = tested on: UACC-257 melanoma
[56] = tested on: UACC-62 melanoma
[57] = tested on: UO-31 renal

COc1cccc2c1C(=O)c1c(O)c3c(c(O)c1C2=O)C[C@@](O)(/C(CO)=N/NC(=O)CCCCCN1C(=O)C=CC1=O)C[C@@H]3O[C@H]1C[C@H](N)[C@H](O)[C@H](C)O1 showed a GI50 [1] of 110 nM, a TGI [1] of 368 nM and a GI50 [2] of 95.8 nM. For the same compound, the TGI [2] was 1440 nM, the GI50 [3] was 98 nM and the TGI [3] was 1430 nM. For the same compound, the GI50 [4] was 258 nM, the TGI [4] was 1360 nM and the GI50 [5] was 59.9 nM. It also gave a TGI [5] of 271 nM, a GI50 [6] of 155 nM and a TGI [6] of 1060 nM. It also gave a GI50 [7] of 15.3 nM, a TGI [7] of 34 nM and a GI50 [8] of 36.6 nM. For the same compound, the TGI [8] was 183 nM, the GI50 [9] was 152 nM and the TGI [9] was 365 nM. For the same compound, the GI50 [10] was 123 nM, the TGI [10] was 294 nM and the GI50 [11] was 74.9 nM. The TGI [11] was 626 nM, the GI50 [12] was 470 nM and the TGI [12] was 3110 nM. For the same compound, the GI50 [13] was 15.1 nM, the TGI [13] was 29.4 nM and the GI50 [14] was 103 nM. For the same compound, the TGI [14] was 273 nM, the GI50 [15] was 37 nM and the TGI [15] was 247 nM. It also gave a GI50 [16] of 148 nM, a TGI [16] of 780 nM and a GI50 [17] of 346 nM. The TGI [17] was 2480 nM, the GI50 [18] was 114 nM and the TGI [18] was 1060 nM. The GI50 [19] was 116 nM, the TGI [19] was 295 nM and the GI50 [20] was 166 nM. The TGI [20] was 381 nM, the GI50 [21] was 72.6 nM and the TGI [21] was 258 nM. The GI50 [22] was 152 nM, the TGI [22] was 403 nM and the GI50 [23] was 93.6 nM. For the same compound, the TGI [23] was 377 nM, the GI50 [24] was 62.5 nM and the TGI [24] was 206 nM. The GI50 [25] was 268 nM, the TGI [25] was 1480 nM and the GI50 [26] was 44.8 nM. For the same compound, the TGI [26] was 169 nM, the GI50 [27] was 10.9 nM and the TGI [27] was 23 nM. The GI50 [28] was 122 nM, the TGI [28] was 288 nM and the GI50 [29] was 166 nM. For the same compound, the TGI [29] was 381 nM, the GI50 [30] was 917 nM and the TGI [30] was 2680 nM. For the same compound, the GI50 [31] was 25.2 nM, the TGI [31] was 136 nM and the GI50 [32] was 29.4 nM. The TGI [32] was 148 nM, the GI50 [33] was 12300 nM and the TGI [33] was 44900 nM. It also gave a GI50 [34] of 159 nM, a TGI [34] of 686 nM and a GI50 [35] of 243 nM. The TGI [35] was 716 nM, the GI50 [36] was 522 nM and the TGI [36] was 3000 nM. It also gave a GI50 [37] of 141 nM, a TGI [37] of 1310 nM and a GI50 [38] of 407 nM. It also gave a TGI [38] of 1940 nM, a TGI [39] of 173 nM and a GI50 [40] of 45.2 nM. For the same compound, the TGI [40] was 228 nM, the GI50 [41] was 71.4 nM and the TGI [41] was 372 nM. It also gave a GI50 [42] of 154 nM, a TGI [42] of 470 nM and a GI50 [43] of 38.7 nM. It also gave a TGI [43] of 140 nM, a GI50 [44] of 101 nM and a TGI [44] of 229 nM. For the same compound, the GI50 [45] was 126 nM, the TGI [45] was 519 nM and the GI50 [46] was 124 nM. It also gave a TGI [46] of 328 nM, a GI50 [47] of 138 nM and a TGI [47] of 339 nM. It also gave a GI50 [48] of 139 nM, a TGI [48] of 391 nM and a GI50 [49] of 127 nM. For the same compound, the TGI [49] was 553 nM, the TGI [50] was 15.7 nM and the GI50 [51] was 59.3 nM. It also gave a TGI [51] of 829 nM, a GI50 [52] of 61.5 nM and a TGI [52] of 280 nM. It also gave a GI50 [53] of 225 nM, a TGI [53] of 1040 nM and a GI50 [54] of 50.4 nM. It also gave a TGI [54] of 188 nM, a GI50 [55] of 180 nM and a TGI [55] of 552 nM. It also gave a GI50 [56] of 75.9 nM, a TGI [56] of 233 nM and a GI50 [57] of 1260 nM. The TGI [57] was 3130 nM.
